From US20110150836A1, “METHODS OF TREATING HBV AND HCV INFECTION” (Gilead Sciences, Inc., priority 2009, published 2011)

Test system: cytokines and interferon-inducible genes
Assay: mRNA expression of cytokines and interferon-inducible genes in whole blood of healthy woodchucks (real time PCR)
Assay type: in vivo
Protocol: Compound A was administered orally to adult, WHV-negative woodchucks at two different doses. Three male woodchucks received Compound A at 0.05 mg/kg and three other male woodchucks at 0.5 mg/kg. Whole blood samples (4 mls) were collected from each woodchuck prior to dosing at T0, and then at 4, 8, 12, and 24 hours post-dose using EDTA-containing collection tubes.
The induction of an immune response in woodchucks following administration of Compound A was determined by measuring the mRNA expression of cytokines and interferon-inducible genes in whole blood samples collected at different time points. Total RNA was isolated using the QIAamp RNA Blood Mini Kit (Qiagen) according to the manufacturer's specifications. RNA was eluted into 40 μl nuclease-free water and stored at −70° C. The concentration of RNA was determined spectrophotometrically at OD 260 nm. Two μg of RNA were treated with DNase I (Invitrogen) and reverse transcribed to cDNA with MultiScribe Reverse Transcriptase (Applied Biosystems) using random hexamers. Triplicates of 2 μl cDNA were amplified by real time PCR on an ABI PRISM 7000 Sequence Detection instrument (Applied Biosystems) using SYBR GREEN Master Mix (Applied Biosystems) and woodchuck-specific primers. Amplified target genes included IFN-α, IFN-γ, TNF-α, IL-2, IL-6, IL-10 IL-12, 2′5′-OAS, IDO, and MxA. Woodchuck β-actin mRNA expression was used to normalize target gene expression. Transcription levels of woodchuck cytokines and interferon-inducible genes were represented by the formula 2ΔCt, where ΔCt indicates the difference in the threshold cycle between β-actin and target gene expression. Results were further represented as a fold-change from the transcription level at T0.

## CCCCOc1nc(N)c2nc(O)n(Cc3cccc(CN4CCCC4)c3)c2n1 [Compound A, 6-amino-2-butoxy-9-(3-(pyrrolidin-1-ylmethyl)benzyl)-9H-purin-8-ol]
Oral 0.05 mg/kg, 4 hrs
  2′5′-OAS mRNA expression in peripheral blood, Mean: 13.89
  2′5′-OAS mRNA expression, Fold-change from T0: 3.8 fold
  IDO mRNA expression in peripheral blood, Mean: 1.30
  IDO mRNA expression, Fold-change from T0: 1.1 fold
  IFN-a mRNA expression in peripheral blood, Mean: 7.21
  IFN-a mRNA expression, Fold-change from T0: 3.1 fold
  IFN-γ mRNA expression in peripheral blood, Mean: 2.03
  IFN-γ mRNA expression, Fold-change from T0: 1.6 fold
  IL-2 mRNA expression in peripheral blood, Mean: 2.11
  IL-2 mRNA expression, Fold-change from T0: 1.9 fold
  IL-6 mRNA expression in peripheral blood, Mean: 9.75
  IL-6 mRNA expression, Fold-change from T0: 2.3 fold
  IL-10 mRNA expression in peripheral blood, Mean: 4.14
  IL-10 mRNA expression, Fold-change from T0: 1.7 fold
  IL-12 mRNA expression in peripheral blood, Mean: 7.27
  IL-12 mRNA expression, Fold-change from T0: 4.5 fold
  MxA mRNA expression in peripheral blood, Mean: 2.26
  MxA mRNA expression, Fold-change from T0: 1.4 fold
  TNF-a mRNA expression in peripheral blood, Mean: 23.83
  TNF-a mRNA expression, Fold-change from T0: 3.5 fold
Oral 0.05 mg/kg, 8 hrs
  2′5′-OAS mRNA expression in peripheral blood, Mean: 16.96
  2′5′-OAS mRNA expression, Fold-change from T0: 4.8 fold
  IDO mRNA expression in peripheral blood, Mean: 2.05
  IDO mRNA expression, Fold-change from T0: 2.2 fold
  IFN-a mRNA expression in peripheral blood, Mean: 12.99
  IFN-a mRNA expression, Fold-change from T0: 4.2 fold
  IFN-γ mRNA expression in peripheral blood, Mean: 4.34
  IFN-γ mRNA expression, Fold-change from T0: 3.4 fold
  IL-2 mRNA expression in peripheral blood, Mean: 1.74
  IL-2 mRNA expression, Fold-change from T0: 1.5 fold
  IL-6 mRNA expression in peripheral blood, Mean: 10.57
  IL-6 mRNA expression, Fold-change from T0: 2.6 fold
  IL-10 mRNA expression in peripheral blood, Mean: 8.48
  IL-10 mRNA expression, Fold-change from T0: 3.4 fold
  IL-12 mRNA expression in peripheral blood, Mean: 7.35
  IL-12 mRNA expression, Fold-change from T0: 4.7 fold
  MxA mRNA expression in peripheral blood, Mean: 5.93
  MxA mRNA expression, Fold-change from T0: 3.8 fold
  TNF-a mRNA expression in peripheral blood, Mean: 20.72
  TNF-a mRNA expression, Fold-change from T0: 3.0 fold
Oral 0.05 mg/kg, 12 hrs
  2′5′-OAS mRNA expression in peripheral blood, Mean: 54.92
  2′5′-OAS mRNA expression, Fold-change from T0: 15.6 fold
  IDO mRNA expression in peripheral blood, Mean: 10.64
  IDO mRNA expression, Fold-change from T0: 7.7 fold
  IFN-a mRNA expression in peripheral blood, Mean: 3.82
  IFN-a mRNA expression, Fold-change from T0: 1.3 fold
  IFN-γ mRNA expression in peripheral blood, Mean: 2.64
  IFN-γ mRNA expression, Fold-change from T0: 2.0 fold
  IL-2 mRNA expression in peripheral blood, Mean: 2.43
  IL-2 mRNA expression, Fold-change from T0: 2.1 fold
  IL-6 mRNA expression in peripheral blood, Mean: 6.22
  IL-6 mRNA expression, Fold-change from T0: 1.5 fold
  IL-10 mRNA expression in peripheral blood, Mean: 7.35
  IL-10 mRNA expression, Fold-change from T0: 3.0 fold
  IL-12 mRNA expression in peripheral blood, Mean: 21.12
  IL-12 mRNA expression, Fold-change from T0: 12.7 fold
  MxA mRNA expression in peripheral blood, Mean: 18.70
  MxA mRNA expression, Fold-change from T0: 12.5 fold
  TNF-a mRNA expression in peripheral blood, Mean: 35.05
  TNF-a mRNA expression, Fold-change from T0: 5.2 fold
Oral 0.05 mg/kg, 24 hrs
  2′5′-OAS mRNA expression in peripheral blood, Mean: 36.91
  2′5′-OAS mRNA expression, Fold-change from T0: 11.9 fold
  IDO mRNA expression in peripheral blood, Mean: 26.71
  IDO mRNA expression, Fold-change from T0: 25.6 fold
  IFN-a mRNA expression in peripheral blood, Mean: 2.63
  IFN-a mRNA expression, Fold-change from T0: 1.0 fold
  IFN-γ mRNA expression in peripheral blood, Mean: 1.82
  IFN-γ mRNA expression, Fold-change from T0: 1.2 fold
  IL-2 mRNA expression in peripheral blood, Mean: 3.64
  IL-2 mRNA expression, Fold-change from T0: 3.2 fold
  IL-6 mRNA expression in peripheral blood, Mean: 4.30
  IL-6 mRNA expression, Fold-change from T0: 1.1 fold
  IL-10 mRNA expression in peripheral blood, Mean: 6.08
  IL-10 mRNA expression, Fold-change from T0: 2.3 fold
  MxA mRNA expression in peripheral blood, Mean: 117.33
  MxA mRNA expression, Fold-change from T0: 69.3 fold
  TNF-a mRNA expression in peripheral blood, Mean: 20.53
  TNF-a mRNA expression, Fold-change from T0: 3.2 fold
Oral 0.5 mg/kg, 4 hrs
  2′5′-OAS mRNA expression in peripheral blood, Mean: 33.05
  2′5′-OAS mRNA expression, Fold-change from T0: 6.5 fold
